From US8552007B2, “Mesoionic pesticides” (E.I. du Pont de Nemours and Company, priority 2008, dated 2013)
Structures can show the parent of a compound that is named as a salt. Where two headings read alike, the source gives them in different places.

Tests used:
[1] = system: green peach aphid (Myzus persicae); assay: whole plant or invertebrate; format: in vivo; details: 144 h, sprayed at 250 ppm, radish plant, 6 days
Text: For evaluating control of green peach aphid (Myzus persicae) through contact and/or systemic means, the test unit consisted of a small open container with a 12-15-day-old radish plant inside. This was pre-infested by placing on a leaf of the test plant 30-40 aphids on a piece of leaf excised from a culture plant (cut-leaf method). The aphids moved onto the test plant as the leaf piece desiccated. After pre-infestation, the soil of the test unit was covered with a layer of sand.
Test compounds were formulated and sprayed at 250 ppm as described for Test A. The applications were replicated three times. After spraying of the formulated test compound, each test unit was allowed to dry for 1 h and then a black, screened cap was placed on top. The test units were held for 6 days in a growth chamber at 19-21° C. and 50-70% relative humidity. Each test unit was then visually assessed for insect mortality.

[2] = system: corn planthopper (Peregrinus maidis); assay: whole plant or invertebrate; format: in vivo; details: 144 h
Description: For evaluating control of corn planthopper (Peregrinus maidis) through contact and/or systemic means, the test unit consisted of a small open container with a 3-4-day-old maize plant (spike) inside. White sand was added to the top of the soil prior to application. Test compounds were formulated and sprayed at 250 and 50 ppm and replicated three times as described for Test A. After spraying, the test units were allowed to dry for 1 h before they were post-infested with ˜15-20 nymphs (18 to 21 day old) by sprinkling them onto the sand with a salt shaker. A black, screened cap was placed on the top of the cylinder. The test units were held for 6 days in a growth chamber at 22-24° C. and 50-70% relative humidity. Each test unit was then visually assessed for insect mortality.

[3] = system: potato leafhopper (Empoasca fabae); assay: whole plant or invertebrate; format: in vivo; details: 144 h, Soleil bean plant, 6 days; for mortality at 50 ppm: sprayed at 50 ppm; for mortality at 250 ppm: sprayed at 250 ppm
Description: For evaluating control of potato leafhopper (Empoasca fabae) through contact and/or systemic means, the test unit consisted of a small open container with a 5-6-day-old Soleil bean plant (primary leaves emerged) inside. White sand was added to the top of the soil and one of the primary leaves was excised prior to application.
Test compounds were formulated and sprayed at 250 and 50 ppm, and the tests were replicated three times as described for Test A. After spraying, the test units were allowed to dry for 1 h before they were post-infested with 5 potato leafhoppers (18-21-day-old adults). A black, screened cap was placed on the top of the cylinder. The test units were held for 6 days in a growth chamber at 24° C. and 70% relative humidity. Each test unit was then visually assessed for insect mortality.

[4] = system: cat flea (Ctenocephalides felis); assay: whole plant or invertebrate; format: in vivo; details: 20 μL of 500 ppm solution on filter paper, adult fleas, 48 hours
Description: For evaluating control of the cat flea (Ctenocephalides felis), a test compound was solubilized in acetone:water (75:25) to a final test rate of 500 ppm. Then 20 μL of the 500 ppm solution was applied to filter paper in the bottom of a tube. The tube was allowed to dry for 3 hours. Then approximately 10 adult fleas were added to the tube and the tube was capped. The fleas were evaluated for mortality 48 hours later.

[5] = system: cat flea (Ctenocephalides felis); assay: whole plant or invertebrate; format: in vivo; details: 30 ppm in bovine blood, adult fleas, 72 h
Description: For evaluating control of the cat flea (Ctenocephalides felis), a test compound was solubilized in propylene glycol/glycerol formal (60:40) and then diluted in bovine blood to a final test rate of 30 ppm. The treated blood was placed in a tube with the bottom of the tube covered with a membrane. Approximately 10 adult cat fleas were allowed to feed through the membrane on the treated blood. The adult fleas were evaluated for mortality 72 h later.

[6] = sprayed at 50 ppm, maize plant, 6 days, read-out: mortality
[7] = sprayed at 250 ppm, maize plant, 6 days, read-out: mortality

Row | SMILES | mortality at 50 ppm [2, 6] [%] | mortality at 250 ppm [2, 7] [%] | mortality at 250 ppm [3] [%] | mortality at 500 ppm [4] [%] | other results
1 | O=c1cc([O-])[n+](CC(F)(F)F)c2ccccn12 (as salt: salt) [Compound 610, 2-hydroxy-4-oxo-1-(2,2,2-trifluoroethyl)-4H-pyrido[1,2-a]-pyrimidinium inner salt] |  |  |  |  | melting point: 214 to 215 °C
2 | O=c1c(I)c([O-])[n+](CC(F)(F)F)c2ccccn12 [Compound 111] | ≥ 80 | ≥ 80 | ≥ 80 |  | mortality at 250 ppm [1]: ≥ 80%; mortality at 50 ppm [3]: ≥ 80%
3 | CC(C)c1c([O-])[n+](CC(F)(F)F)c2ccccn2c1=O [Compound 115] |  | ≥ 80 |  | ≥ 50 | 
4 | O=c1c(-c2ccncc2Cl)c([O-])[n+](CC(F)(F)F)c2ccccn12 [Compound 121] | ≥ 80 | ≥ 80 |  | ≥ 50 | mortality at 30 ppm [5]: ≥ 50%
5 | COc1cccc(-c2ncc(C[n+]3c([O-])c(-c4ccccc4)c(=O)n4ccccc43)s2)c1 [Compound 520] |  |  |  | ≥ 50 | 
6 | O=c1c(-c2ccc(Cl)nc2)c([O-])[n+](CC(F)(F)F)c2ccccn12 [Compound 570] | ≥ 80 | ≥ 80 | ≥ 80 |  | mortality at 50 ppm [3]: ≥ 80%
7 | O=c1c(-c2ccc(F)nc2)c([O-])[n+](CC(F)(F)F)c2ccccn12 [Compound 571] | ≥ 80 | ≥ 80 | ≥ 80 |  | 
8 | O=c1c(-c2ccccc2)c([O-])[n+](C2CCOCC2)c2ccccn12 [Compound 583] |  | ≥ 80 |  |  | 
9 | COc1cccc(-c2ccc(C[n+]3c([O-])c(-c4ccccc4)c(=O)n4ccccc43)cn2)c1 [Compound 599] | ≥ 80 |  |  | ≥ 50 | mortality at 30 ppm [5]: ≥ 50%
10 | COc1cccc(-c2ncc(C[n+]3c([O-])c(I)c(=O)n4ccccc43)s2)c1 [Compound 613, 2-hydroxy-3-iodo-1-[[2-(3-methoxyphenyl)-5-thiazolyl]methyl]-4-oxo-4H-pyrido[1,2-a]-pyrimidinium inner salt] | ≥ 80 | ≥ 80 | ≥ 80 |  | 
11 | O=C(c1c([O-])[n+](CC(F)(F)F)c2ccccn2c1=O)C(F)(F)F [Compound 711, 2-hydroxy-4-oxo-3-(2,2,2-trifluoroacetyl)-1-(2,2,2-trifluoroethyl)-4H-pyrido[1,2-a]-pyrimidinium inner salt] |  |  |  |  | mortality at 50 ppm [3]: ≥ 80%
12 | O=c1c(C2CCc3ccccc32)c([O-])[n+](Cc2ccc(Cl)nc2)c2ccccn12 (stereo not drawn) [Compound 757] |  |  |  |  | mortality at 50 ppm [2]: ≥ 80%; mortality at 250 ppm [2]: ≥ 80%
